The text below walks through data of patent US20030105281A1, “Antimicrobial peptides isolated from mast cells” (priority 2000, published 2003).

≈ marks a conversion by molar mass, not a printed value. Residues, ends and D or L forms follow the SMILES beside them. No end group written: not given here.

Data set [1] is classed as cell-based. From the text:
(§1) where CC is linked via a disulfide bridge.

The next data set has as its system human pathogens. Put plainly: Activity of dimeric peptide against human pathogens. The class given is cell-based.
Excerpt: as §1

The test system of the next data set is bacteria. In words: Antibacterial activity of synthetic SEQ ID NO: 4 sequence. As to conditions: synthetic sequence with tryptophan as X. The class given is cell-based. From the text:
[SEQ ID NO: 4], where X is tryptophan or beta-hydroxytryptophan. It is tentatively believed that beta-hydroxytryptophan is present as X in the natural sequence.

A further data set deals with Staphylococcus aureus. The method, then: (§2) The antimicrobial activity of synthetic piscidin 1, piscidin 2 and piscidin 3 (P1, P2 and P3) was tested against a variety of different bacteria.
For another data set, the system named is Escherichia coli. The method, then:
as §2

The next data set concerns Pseudomonas aeruginosa. On the procedure:
as §2

The next data set concerns Enterococcus faecium. The format is cell-based. As to conditions: Case 00-1437, vancomycin resistant, vanA; MHB. On the procedure:
as §2

Data set [2] concerns Staphylococcus epidermidis. The format is cell-based. On the procedure:
as §2

Another data set deals with Enterococcus gallinarum. The class given is cell-based. On the procedure:
as §2

For a further data set, the system named is Streptococcus iniae. The format is cell-based. On the procedure:
as §2

In the next data set the test system is Aeromonas hydrophilia. The class given is cell-based. On the procedure:
as §2

Turning to “HVIGRFIHHFFCCFFHHIFRGIVH (cysteine pairing not given here; also: dimer) [SEQ ID NO: 6]”, in data set [1], the hemolytic activity result is given as “no detectable hemolytic activity”. Moreover, the “activity against several human pathogens” value in the data set on human pathogens is “active against several human pathogens”.
“FFRHLFRGAKAIFRGARQGXRAHKVVSRYRNRDVPETDNNQEEP [SEQ ID NO: 4, Endobiotic Family 2 peptide, about 5329 Da, X is tryptophan or beta-hydroxytryptophan]”: the antibacterial activity result in the data set with bacteria is reported as “potent antibacterial activity”.
As to `CC[C@H](C)[C@H](NC(=O)CNC(=O)[C@H](CCCNC(=N)N)NC(=O)[C@H](Cc1ccccc1)NC(=O)[C@@H](NC(=O)[C@H](Cc1c[nH]cn1)NC(=O)[C@H](Cc1c[nH]cn1)NC(=O)[C@@H](NC(=O)[C@@H](N)Cc1ccccc1)[C@@H](C)CC)[C@@H](C)CC)C(=O)N[C@H](C(=O)N[C@@H](Cc1c[nH]cn1)C(=O)N[C@@H](C)C(=O)NCC(=O)N[C@@H](CCCNC(=N)N)C(=O)N[C@@H](CO)C(=O)N[C@H](C(=O)NCC(=O)N[C@@H](CCCNC(=N)N)C(=O)N[C@@H](Cc1ccccc1)C(=O)N[C@@H](CC(C)C)C(=O)N[C@H](C(=O)NCC(N)=O)[C@@H](C)O)[C@@H](C)CC)C(C)C` [P3] (H-FIHHIFRGIVHAGRSIGRFLTG-NH2; N-terminus assumed), the MBC – broadly, the smallest concentration meeting the test's criterion for killing – with Staphylococcus aureus was 3.13 µg/mL (≈ 1.26 µM); in the data set with Escherichia coli, 3.13 µg/mL (≈ 1.26 µM); in the data set with Pseudomonas aeruginosa, 25 µg/mL (≈ 10 µM); against Enterococcus gallinarum, 50 µg/mL (≈ 20.1 µM); against Streptococcus iniae it was 3.13 µg/mL (≈ 1.26 µM); with Aeromonas hydrophilia it was 1.57 to 3.13 µg/mL. Further, the MIC (usually the lowest concentration found to suppress growth) was 3.13 µg/mL (≈ 1.26 µM) with Staphylococcus aureus; 3.13 µg/mL (≈ 1.26 µM) with Escherichia coli; 25 µg/mL (≈ 10 µM) in the data set with Pseudomonas aeruginosa; 3.13 to 6.25 µg/mL in the data set with Enterococcus faecium; 3.13 µg/mL (≈ 1.26 µM) in [2]; 50 µg/mL (≈ 20.1 µM) in the data set with Enterococcus gallinarum. The MIC against Streptococcus iniae was 3.13 µg/mL (≈ 1.26 µM); against Aeromonas hydrophilia, 1.57 to 3.13 µg/mL.
For the compound `CC[C@H](C)[C@H](NC(=O)CNC(=O)[C@H](CCCNC(=N)N)NC(=O)[C@H](Cc1ccccc1)NC(=O)[C@@H](NC(=O)[C@H](Cc1c[nH]cn1)NC(=O)[C@H](Cc1c[nH]cn1)NC(=O)[C@H](Cc1ccccc1)NC(=O)[C@@H](N)Cc1ccccc1)[C@@H](C)CC)C(=O)N[C@H](C(=O)N[C@@H](Cc1c[nH]cn1)C(=O)N[C@H](C(=O)NCC(=O)N[C@@H](CCCCN)C(=O)N[C@H](C(=O)N[C@H](C(=O)N[C@@H](Cc1c[nH]cn1)C(=O)N[C@@H](CCCNC(=N)N)C(=O)N[C@@H](CC(C)C)C(=O)N[C@H](C(=O)N[C@H](C(=O)NCC(N)=O)[C@@H](C)O)C(C)C)[C@@H](C)CC)[C@@H](C)O)C(C)C)C(C)C` [P1] (H-FFHHIFRGIVHVGKTIHRLVTG-NH2; N-terminus assumed), the MBC with Pseudomonas aeruginosa was 12.5 µg/mL (≈ 4.86 µM); with Enterococcus gallinarum, 12.5 µg/mL (≈ 4.86 µM); in the data set with Aeromonas hydrophilia, 0.79 to 1.57 µg/mL. For the same compound, the MIC is 12.5 µg/mL (≈ 4.86 µM) in the data set on Pseudomonas aeruginosa, 12.5 µg/mL (≈ 4.86 µM) in the data set with Enterococcus gallinarum and 0.79 to 1.57 µg/mL against Aeromonas hydrophilia.
